Laboratory results from patent publication US12448369B2 (Edgewise Therapeutics, Inc., priority 2023, dated 2025).

Columns and labels:
[1] = biological target: T1, Porcine ventricle myofibrils (ventricular myosin ATPase) (Sus scrofa, UniProt P79293); experiment: Myofibril ATPase assay, porcine ventricle myofibrils; type: biochemical, porcine (Yucatan minipigs); details: porcine ventricle myofibrils
T1 construct: Myofibrils from porcine cardiac muscle was isolated from the left ventricle of Yucatan minipigs; tissue Exemplar Genetics; host or cells: left ventricle of Yucatan minipigs, myofibrils prepared in house
T1 sequence (P79293 whole entry): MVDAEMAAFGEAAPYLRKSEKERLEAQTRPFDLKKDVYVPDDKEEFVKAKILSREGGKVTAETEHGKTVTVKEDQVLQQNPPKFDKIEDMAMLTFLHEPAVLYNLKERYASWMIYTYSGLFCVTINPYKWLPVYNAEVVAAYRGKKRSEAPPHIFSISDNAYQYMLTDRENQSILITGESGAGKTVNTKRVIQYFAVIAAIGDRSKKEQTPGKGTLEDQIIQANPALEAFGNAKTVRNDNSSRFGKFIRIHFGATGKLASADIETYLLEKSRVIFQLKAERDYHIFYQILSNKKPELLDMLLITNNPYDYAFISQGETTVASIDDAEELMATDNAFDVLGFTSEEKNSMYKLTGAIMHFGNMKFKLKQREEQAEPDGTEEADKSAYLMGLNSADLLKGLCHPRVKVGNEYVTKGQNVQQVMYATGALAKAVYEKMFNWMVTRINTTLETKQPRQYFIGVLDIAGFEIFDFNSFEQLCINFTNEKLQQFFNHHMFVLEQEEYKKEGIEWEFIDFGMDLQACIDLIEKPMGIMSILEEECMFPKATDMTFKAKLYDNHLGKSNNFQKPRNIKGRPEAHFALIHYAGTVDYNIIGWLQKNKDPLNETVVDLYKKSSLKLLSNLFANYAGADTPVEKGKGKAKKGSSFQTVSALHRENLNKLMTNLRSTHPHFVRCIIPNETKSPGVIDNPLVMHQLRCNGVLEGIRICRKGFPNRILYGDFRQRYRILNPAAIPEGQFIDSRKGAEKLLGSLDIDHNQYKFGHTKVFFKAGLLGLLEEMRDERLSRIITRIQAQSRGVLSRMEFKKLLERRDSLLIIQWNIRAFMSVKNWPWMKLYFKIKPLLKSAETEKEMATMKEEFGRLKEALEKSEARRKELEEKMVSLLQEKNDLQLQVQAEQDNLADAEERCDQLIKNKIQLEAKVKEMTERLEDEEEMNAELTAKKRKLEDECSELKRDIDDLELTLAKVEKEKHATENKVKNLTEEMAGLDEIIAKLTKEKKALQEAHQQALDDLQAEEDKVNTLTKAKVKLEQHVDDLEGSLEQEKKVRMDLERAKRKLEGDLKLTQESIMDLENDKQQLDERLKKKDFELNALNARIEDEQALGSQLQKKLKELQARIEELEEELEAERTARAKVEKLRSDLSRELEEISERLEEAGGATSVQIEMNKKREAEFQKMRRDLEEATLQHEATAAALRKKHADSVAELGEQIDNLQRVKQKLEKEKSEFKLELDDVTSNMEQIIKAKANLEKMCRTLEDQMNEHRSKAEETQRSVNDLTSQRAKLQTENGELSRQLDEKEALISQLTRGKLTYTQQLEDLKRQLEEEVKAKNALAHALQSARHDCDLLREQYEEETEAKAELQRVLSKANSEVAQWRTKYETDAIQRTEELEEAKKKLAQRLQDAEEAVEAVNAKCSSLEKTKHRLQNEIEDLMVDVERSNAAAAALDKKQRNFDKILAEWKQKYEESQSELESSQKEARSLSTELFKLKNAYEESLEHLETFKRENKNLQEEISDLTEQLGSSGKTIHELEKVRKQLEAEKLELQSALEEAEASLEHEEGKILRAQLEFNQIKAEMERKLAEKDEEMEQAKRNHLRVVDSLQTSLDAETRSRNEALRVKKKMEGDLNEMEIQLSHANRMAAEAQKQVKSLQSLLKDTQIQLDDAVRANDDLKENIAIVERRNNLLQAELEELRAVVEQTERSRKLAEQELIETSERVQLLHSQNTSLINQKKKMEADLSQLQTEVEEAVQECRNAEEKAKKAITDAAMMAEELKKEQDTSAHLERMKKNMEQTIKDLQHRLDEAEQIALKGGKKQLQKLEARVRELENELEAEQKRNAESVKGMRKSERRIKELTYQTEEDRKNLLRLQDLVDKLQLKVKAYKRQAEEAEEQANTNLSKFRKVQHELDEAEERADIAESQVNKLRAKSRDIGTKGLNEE
Summary of the method: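 Read-out: A340 kinetic, NADH consumption coupled to ADP via PK-LDH, 75 min. Yucatan minipig LV myofibrils, pCa buffer (PIPES/CaCl2/EGTA, pH 7.0). Linear-regression slope (mAU/min), vehicle = 100%, 4PL fit; Y75 or Y125 reported.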

[2] = tested on: Porcine atria myofibrils (atrial myosin ATPase); experiment: Myofibril ATPase assay, porcine atria myofibrils; type: biochemical; details: porcine atria myofibrils
Summary of the method: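 Porcine atrial myofibrils were tested in a PK/LDH-coupled system where ADP from myosin ATPase drives NADH oxidation. Absorbance at 340 nm was read every 1.5-2 min for 75 min and slopes were normalized to vehicle wells. A 4-parameter logistic fit gave Y75 (25% inhibition) or Y125 (activation) concentrations.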

[3] = tested on: Rabbit Psoas myofibrils (skeletal myosin ATPase); experiment: Myofibril ATPase assay, rabbit psoas (skeletal) myofibrils; type: biochemical; details: rabbit psoas myofibrils
Summary of the method: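 ATPase activity of Triton-washed myofibrils was measured by PK/LDH coupling, following NADH loss at 340 nm every 1.5–2 min for 75 min in PIPES/Ca/EGTA buffer at pH 7.0. Slopes, normalized to vehicle (100%), were fitted to a 4-parameter logistic model. Values are Y75 (25% inhibition) or Y125 (activators).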

[4] = Y75 value (75% activity relative to no compound)

Compound	Ventricular EC25 ([1]; Y75 value)	Atrial EC25 [2, 4]	Skeletal EC25 ([3]; Y75 value)	Ventricular EC25 ([1]; Y75 value (no ‡ mark))	Atrial EC25 ([2]; Y75 value (no ‡ mark))	Skeletal EC25 ([3]; Y75 value (no ‡ mark))
Cc1c(CC(=O)N[C@@H](C)c2ccc(F)cc2F)c(=O)[nH]c2ccnc(NC3CC3)c12 [compound 276]	15.06 µM	1.25 µM	0.14 µM			
O=C(Cc1cc2c(F)c(F)ccc2[nH]c1=O)N[C@@H]1COc2ncccc21 (single isomer, unassigned) [compound 63]				62.72 µM	0.42 µM	1.55 µM
Cc1c(CC(=O)N[C@@H](C)c2ncc(F)cc2F)c(=O)[nH]c2ccc(O)nc12 (single isomer, unassigned) [compound 223]	61.19 µM	12.99 µM	16.17 µM			
C[C@@H](NC(=O)Cc1cc2c(F)c(F)ccc2[nH]c1=O)c1cnc(C#N)cn1 (single isomer, unassigned) [compound 11]				0.15 µM	0.05 µM	0.07 µM
Cc1c(CC(=O)N[C@H](CO)c2ncc(F)cc2F)c(=O)[nH]c2ccnc(C(F)(F)F)c12 [compound 263]	100.00 µM	100.00 µM	100.00 µM			
Cc1c(CC(=O)N[C@H](CO)c2ncc(F)cc2F)c(=O)[nH]c2ccc(C#N)nc12 [compound 259]	100.00 µM	100.00 µM	100.00 µM			
N#Cc1ccc([C@@H](CO)NC(=O)Cc2c(C3CC3)c3cc(F)ccc3[nH]c2=O)c(F)c1 [compound 75]				0.61 µM	59.37 µM	15.21 µM
Cc1nccc2[nH]c(=O)c(CC(=O)N[C@H](C)c3ccccn3)c(C)c12 (single isomer, unassigned) [compound 324]	100.00 µM	100.00 µM	100.00 µM			
Cc1c(CC(=O)N[C@@H](CO)c2ncccc2F)c(=O)[nH]c2ccnc(C#N)c12 (single isomer, unassigned) [compound 236]	100.00 µM	38.11 µM	0.59 µM			
C[C@H](NC(=O)Cc1c(C2CC2)c2cnccc2[nH]c1=O)c1ccc(C#N)cn1 [compound 141]	100.00 µM	100.00 µM	8.74 µM			
Cc1c(CC(=O)N[C@@H](C)c2ccc(F)cc2F)c(=O)[nH]c2ccnc(I)c12 [compound 353]	0.31 µM	0.14 µM	0.06 µM			
Cc1c(CC(=O)N[C@H](C)c2ccc(C#N)cn2)c(=O)[nH]c2ccnc(C#N)c12 [compound 157]	26.29 µM	13.10 µM	0.62 µM			
Cc1c(O)ccc2[nH]c(=O)c(CC(=O)N[C@H](C)c3ncc(F)cc3F)cc12 (single isomer, unassigned) [compound 77]				100.00 µM	100.00 µM	47.84 µM

The remaining lines, values ahead:

Ventricular EC25 ([1]; Y75 value)	Atrial EC25 [2, 4]	Skeletal EC25 ([3]; Y75 value)	Ventricular EC25 ([1]; Y75 value (no ‡ mark))	Atrial EC25 ([2]; Y75 value (no ‡ mark))	Skeletal EC25 ([3]; Y75 value (no ‡ mark))	Compound
34.58 µM	14.61 µM	2.68 µM				Cc1nccc2[nH]c(=O)c(C(F)(F)C(=O)N[C@@H](C)c3cnc(C#N)cn3)c(C)c12 (single isomer, unassigned) [compound 3521]
			0.08 µM	0.05 µM	0.02 µM	Cc1c([C@@H](C)C(=O)N[C@@H](C)c2ncc(C#N)cc2F)c(=O)[nH]c2ccc(F)c(F)c12 (relative stereo) [compound 2602, rel-(2R*)-N-[(1S)-1-(5-cyano-3-fluoropyridin-2-yl)ethyl]-2-(5,6-difluoro-4-methyl-2-oxo-1H-quinolin-3-yl) propanamide]
			0.84 µM	0.29 µM	0.09 µM	C[C@H](NC(=O)Cc1c(C2CC2)c2c(F)cccc2[nH]c1=O)c1ncc(C#N)cc1F [compound 1144]
			100.00 µM	16.08 µM	13.05 µM	Cc1ccc2[nH]c(=O)c(CC(=O)N[C@H](C)c3ncc(C#N)cn3)cc2c1F (single isomer, unassigned) [compound 2013]
			100.00 µM	38.95 µM	76.36 µM	Cc1c(C(F)(F)C(=O)N[C@@H](C)c2cc(C#N)ccn2)c(=O)[nH]c2ccc(F)cc12 (single isomer, unassigned) [compound 2576]
			0.60 µM	0.43 µM	0.16 µM	Cc1c(CC(=O)N[C@H](C)c2ncc(C#N)cc2F)c(=O)[nH]c2ccc(F)c(Cl)c12 (single isomer, unassigned) [compound 2051]
			0.48 µM	0.16 µM	0.08 µM	N#Cc1cc(F)c2c(c1)OC[C@@H]2NC(=O)C1(c2cc3c(F)c(F)ccc3[nH]c2=O)CC1 (single isomer, unassigned) [compound 4822]
			4.00 µM	0.73 µM	0.83 µM	Cc1c(C2(C(=O)N[C@H](C)c3ncc(C#N)cn3)CC2)c(=O)[nH]c2cccc(C#N)c12 (single isomer, unassigned) [compound 2543]
			1.57 µM	0.72 µM	0.24 µM	Cc1c(CC(=O)N[C@H](C)c2ccc(C#N)cn2)c(=O)[nH]c2ccc(F)cc12 [compound 1127]
			100.00 µM	100.00 µM	18 µM	N#Cc1cnc2c(c1)COC[C@@H]2NC(=O)Cc1cc2cc(F)c(F)cc2[nH]c1=O [compound 1055]
5.93 µM	4.05 µM	0.40 µM				C[C@@H](NC(=O)Cc1cc2c(C#N)nccc2[nH]c1=O)c1ccc(C#N)cn1 [compound 472]
			0.64 µM	0.49 µM	0.15 µM	CC[C@H](NC(=O)Cc1c(C)c2c(C)c(F)ccc2[nH]c1=O)c1ncc(C#N)cn1 (single isomer, unassigned) [compound 4834]
			100.00 µM	5.78 µM	100.00 µM	Cc1cc(C#N)ccc1[C@@H](C)NC(=O)Cc1c(O)c2cc(F)c(F)cc2[nH]c1=O [compound 1088]
			68.08 µM	100.00 µM	3.15 µM	Cc1c(CC(=O)N[C@@H](C)c2ccc(C#N)nn2)c(=O)[nH]c2ccc(F)c(C3CC3)c12 (single isomer, unassigned) [compound 2058]
			45.96 µM	0.89 µM	1.49 µM	Cc1c(C2(C(=O)N[C@@H](C)c3ncc(C#N)cn3)CC2)c(=O)[nH]c2ccc(F)c(C#N)c12 (single isomer, unassigned) [compound 2532]
2.17 µM	0.14 µM	100.00 µM				COc1nccc2[nH]c(=O)c(CC(=O)N[C@H](C)c3ncc(C#N)cc3F)c(C(F)(F)F)c12 (single isomer, unassigned) [compound 3009]
			0.40 µM	0.24 µM	0.32 µM	Cc1c(C2(C(=O)N[C@@H](C)c3ncc(C#N)cc3F)CC2)c(=O)[nH]c2cccc(C#N)c12 (single isomer, unassigned) [compound 2542]
100.00 µM	2.05 µM	9.37 µM				CC(C(=O)N[C@@H](C)c1ccc(F)cc1F)c1cc2c(C(F)(F)F)nccc2[nH]c1=O (single isomer, unassigned) [compound 3518]
